In patent US20180209979A1, “METHOD FOR INDIVIDUALIZED CANCER THERAPY” (INSERM (INSTITUT NATIONAL DE LA SANTE ET DE LA RECHERCHE), priority 2015, published 2018):

Legend:
[1] = system: CAL33 cells; assay: Clonogenicity assay (clonal growth) of shC, sh1 and sh2 CAL33 cells; assay type: cell-based, human; settings: for inhibition at 0.1 µM: Homo sapiens, CAL-33, erlotinib 0.1 μmol/L, FIG. 7
Experimental: The mean and standard deviation were calculated for three independent experiments. Statistical analysis was carried out using a t test. […] Dishes were then stained with Giemsa (Fluka) and plates were scanned in order to analyze the results by computer with ImageJ software (NIH, USA).

[2] = system: head and neck tumors; settings: Agulnik M et al. 2007; cited from earlier work
[3] = system: CAL33 cells; settings: read-out: IC50 of erlotinib, Quesnelle K M et al. 2012; cited from earlier work
[4] = system: CAL33LUC cells; assay: Tumor xenograft formation, size evaluation and tumor section analysis; assay type: in vivo; settings: 10^6 CAL33LUC cells subcutaneously in nude mice, versus shC, FIG. 5
Experimental: 10^6 cells were injected subcutaneously into the flanks of 5-week-old nude (nu/nu) female mice (Janvier). Bioluminescence was quantified using the In Vivo Imaging System (Perkin Elmer) according to the manufacturer's instructions. Tumor volume [(v ¼ L l^2 0.52] was determined in parallel using a caliper. There was a linear relationship between values for bioluminescence and the tumor volume.
Immuno-histochemical staining for TRF2 was carried out in 3 μm tissue sections from formalin-fixed, paraffin-embedded tissue blocks. Histopathological analysis was conducted in 3 μm tissue sections colored with Masson's trichrome (blue collagen) and scanned with Leica Slide Path. For each tumor, pictures were taken and the following parameters were analyzed using Leica Slide Path Gateway software: total area of the section, area of necrosis, presence of white blood cells inflammatory infiltrate, presence of red blood cells extravasation, thickness of collagen around vessels, number of vessels.

[5] = system: CAL 33 cells; assay: qPCR analysis of pro-angiogenic/pro-inflammatory genes induced by TRF2 silencing; assay type: cell-based, human; settings: shC cells = 100
Source text: (§1) To further analyze the effect of TRF2 knock-down on cell proliferation, invasion capabilities and treatment response, CAL 33 cells expressing shRNA against TRF2 and dominant negative forms of TRF2 were generated (Biroccio A et al. Nat Cell Biol 2013; 15(7):818-28). CAL 33 cells were infected using lentiviral vector (pLKOpuro-3×LacO, Sigma). The plasmids contained scramble (shC; SEQ ID No1) or TRF2-specific shRNA, sh1 (SEQ ID No2) or sh2 (SEQ ID No3).

[6] = system: CAL27 cells; assay: Cumulative population doublings of CAL27 cells; assay type: cell-based, human; settings: FIG. 3B
Experimental: (§2) For cumulative population doublings assays (Nekanti U et al. Int J Biol Sci 2010; 6(5):499-512.) 10^5 cells were grown in 7.5% FCS-DMEM medium for 28 days at 37° C. and 5% CO2 in Petri boxes 100 mm diameter. Cells were counted each day (Coulter, Beckman) and media were changed every five days. Cells at each passage was calculated as a ratio of total number of cells harvested to total number of cells seeded multiplied by the total number of cells from the previous passage. Population doublings were calculated using the formula: […]
(§3) in which NI is the inoculum cell number and NH the cell harvest number.
(§4) To yield the cumulated doubling level, the population doubling for each passage was calculated and then added to the population doubling levels of the previous passages. The population doubling time was obtained by the formula: […]
(§5) In which NI is the inoculum cell number; NH is the cell harvest number and t is the time of the culture (in hours).

[7] = system: CAL33 cells; assay: Cumulative population doublings of CAL33 cells; assay type: cell-based, human; settings: FIG. 2B
Experimental: as §2, §3, §4, §5

[8] = system: TRF2; assay: TRF2 knock-down tested by immunoblotting in CAL33 cells; assay type: cell-based, human; settings: FIG. 2A
Source text: as §1
The following antibodies were used for Western blotting: anti-phospho ERK 1,2 (Sigma St Louis, Mo.), anti-phospho Akt, anti-Akt, anti-EGFR (Cell Signaling, Cambridge, UK,), anti-ERKs (Santa Cruz Biotechnology, Santa Cruz, Calif.)), anti-TRF2 (Novus bio, Cambridge, UK) and alpha-tubulin (Fischer scientific, Illkirch France).

Molecule | tumor growth / tumor size (bioluminescence) [4] | percentage expression of 36B4 [5] [%] | percentage expression of CXCL1 [5] | percentage expression of CXCL7 [5] | percentage expression of CXCL8 [5] | percentage expression of CXCL9 [5] | percentage expression of GAPDH [5] [%] | percentage expression of IL6 [5] | percentage expression of PDGF-BB [5] | percentage expression of RANTES [5] | percentage expression of TRF2 [5] [%] | percentage expression of m-RPLP0 [5] [%] | proliferation (cumulative population doublings) [6] | proliferation (cumulative population doublings) [7] | further results
O=c1[nH]cc(F)c(=O)[nH]1 [5 FU] | – | – | – | – | – | – | – | – | – | – | – | – | – | – | influence of TRF2 knock-down on the efficacy of the drug (clonal growth) ([1]; shC, sh1 and sh2 CAL33 cells, FIG. 6B): no influence
C#Cc1cccc(Nc2ncnc3cc(OCCOC)c(OCCOC)cc23)c1 [erlotinib] | – | – | – | – | – | – | – | – | – | – | – | – | – | – | patients with an objective response to the treatment [2]: 50%; IC50 [3]: 5.4 µM; inhibition at 0.1 µM ([1]; sh1 CAL33 cells (TRF2 knock-down)): 40%; inhibition at 0.1 µM ([1]; sh2 CAL33 cells (TRF2 knock-down)): 50%
sh1: TRF2-specific shRNA encoded by DNA of SEQ ID No2, expressed from lentiviral vector (DNA GCCAGAATATCATTAGCGTTTCTCGAGAAACGCTAATGATATTCTGGC) | decreases tumor growth | 100 | 380(***) % | 110% | 350(***) % | 210(**) % | 100 | 400(***) % | 150(*) % | 270(***) % | 70 | 100 | does not impair CAL27 proliferation | does not impair CAL33 proliferation | –
sh2: TRF2-specific shRNA encoded by DNA of SEQ ID No3, expressed from lentiviral vector (DNA GCGCATGACAATAAGCAGATTCTCGAGAATCTGCTTATTGTCATGCGC) | decreases tumor growth | 100 | 370(***) % | 120(*) % | 1100(***) % | 600(***) % | 100 | 1000(***) % | 190(***) % | 190(***) % | 40 | 100 | does not impair CAL27 proliferation | does not impair CAL33 proliferation | efficacy in knocking-down TRF2 [8]: most efficient; tumor growth / tumor size (bioluminescence) ([4]; listed as shTRF2 #2): smallest tumors
